Measurements as given in patent US20250161314A1, “METHOD FOR TREATMENT OR IMPROVEMENT OF NON-ALCOHOLIC FATTY LIVER DISEASE AND OBESITY BY LUMICHROME” (CATHAY GENERAL HOSPITAL, priority 2023, published 2025).
“Also recorded” adds a separate entry of the source.

Columns and labels:
Assay type in all cases: in vivo
[1] = system: C57BL/6 male mice; test: Body size and liver appearance of mice after high-fat diet and lumichrome; details: HFD mice; for liver appearance (fatty liver): from 21th week of 32 weeks
Excerpt: (§1) The serum was further analyzed by a dry chemistry auto analyzer (DRI-CHEM NX500i, Fujifilm, Tokyo, Japan) to measure the following blood biochemical values: AST, ALT and LDH. • (4) The mice in all groups were eventually sacrificed by excessive anesthesia, and both the epididymal fat and liver thereof were collected for a weight measurement, wherein the liver was divided into three parts, and a first part thereof, the first liver tissue, was further tested to determine the lipid amount in the liver by a lipid extraction kit (Chloroform-Free) (ab211044, Abeam, Cambridge, UK). • (5) A second part of the liver, the second liver tissue, was soaked in 4% formaldehyde (10% formalin) for frozen section, and the obtained liver tissue section was further subjected to (1) H/E staining and (2) Oil red O (ORO) staining for lipids (Bio-check laboratories, Taipei, Taiwan). • (6) A third part of the liver, the third liver tissue, was subjected to mRNA extraction, and the extracted mRNA was further subjected to quantitative polymerase chain reaction (qPCR). Further, (1) by qPCR with the primers of SEQ ID NO:1 and SEQ ID NO:2, the relative mRNA expression level of Acta2, which relates to liver fibrosis, in the liver in all groups was determined. (2) by qPCR with the primers of SEQ ID NO:3 and SEQ ID NO:4, the relative mRNA expression level of CD36, which affects fat uptake by liver cells, in all groups was determined; and (3) by qPCR with the primers of SEQ ID NO:5 and SEQ ID NO:6, the relative mRNA expression level of FABP1, which affects fat uptake by liver cells, in all groups was determined.

[2] = system: C57BL/6 male mice; test: Weekly weight measurement (weight gain) of high-fat diet mice; details: HFD mice, 12 weeks
[3] = system: C57BL/6 male mice; test: Grip strength test by grip strength meter; details: lumichrome 0.8 or 4 mg/kg/day oral gavage
[4] = system: C57BL/6 male mice; test: Serum blood biochemical values AST, ALT and LDH by dry chemistry auto analyzer; details: HFD mice
Excerpt: as §1
(§2) The present invention used a statistic and graphing software (prism ver. 6) for data analysis. The data of the numerical mean±standard deviation (SD) of the independent samples in all six groups were firstly obtained, and further subjected to One-way ANOVA for statistics. The post-hoc test was Tukey multiple comparison test. The differences between the groups were analyzed separately, and a p value less than 0.05 indicated a statistically significant difference.

[5] = system: C57BL/6 male mice; test: Epididymal fat weight, liver weight and lipid amount in the liver; details: HFD mice
Excerpt: as §1, §2

[6] = system: C57BL/6 male mice; test: Liver sections, H/E staining and Oil red O staining for lipid droplets; details: HFD mice, H/E and ORO staining
Excerpt: as §1, with “(2) by qPCR with the primers of SEQ ID NO:3 and SEQ ID NO:4, the relative mRNA expression level of CD36, which affects fat uptake by liver cells, in all groups was determined; and (3) by qPCR with the primers of SEQ ID NO:5 and SEQ ID NO:6, the relative mRNA expression level of FABP1, which affects fat uptake by liver cells, in all groups was determined.” left out

[7] = system: Acta2; test: qPCR relative mRNA expression level of Acta2 in the liver; details: HFD mice
Excerpt: as §1, with “(2) by qPCR with the primers of SEQ ID NO:3 and SEQ ID NO:4, the relative mRNA expression level of CD36, which affects fat uptake by liver cells, in all groups was determined; and (3) by qPCR with the primers of SEQ ID NO:5 and SEQ ID NO:6, the relative mRNA expression level of FABP1, which affects fat uptake by liver cells, in all groups was determined.” left out

[8] = system: CD36; test: qPCR relative mRNA expression level of CD36 in the liver; details: HFD mice
Excerpt: as §1, with “(2) by qPCR with the primers of SEQ ID NO:3 and SEQ ID NO:4, the relative mRNA expression level of CD36, which affects fat uptake by liver cells, in all groups was determined; and (3) by qPCR with the primers of SEQ ID NO:5 and SEQ ID NO:6, the relative mRNA expression level of FABP1, which affects fat uptake by liver cells, in all groups was determined.” left out

[9] = system: FABP1; test: qPCR relative mRNA expression level of FABP1 in the liver; details: HFD mice
Excerpt: as §1, with “(2) by qPCR with the primers of SEQ ID NO:3 and SEQ ID NO:4, the relative mRNA expression level of CD36, which affects fat uptake by liver cells, in all groups was determined; and (3) by qPCR with the primers of SEQ ID NO:5 and SEQ ID NO:6, the relative mRNA expression level of FABP1, which affects fat uptake by liver cells, in all groups was determined.” left out

[10] = lumichrome high dose 4 mg/kg/day oral gavage
[11] = lumichrome low dose 0.8 mg/kg/day oral gavage
[12] = lumichrome high dose 4 mg/kg/day oral gavage, 4 mg/kg/day

SMILES: Cc1cc2nc3[nH]c(=O)[nH]c(=O)c3nc2cc1C [lumichrome]
- body size of mice [1, 10]: more obvious efficacy to ameliorate the body size increase of mice
- liver appearance (fatty liver) [1, 10]: improve the appearance of a fatty liver to regain a blood red color
- body size of mice [1, 11]: inhibit the increase of the body size of mice
- liver appearance (fatty liver) [1, 11]: improve the appearance of a fatty liver and regain a red color
- weight gain [2, 12]: ameliorate weight gain increase of mice resulting from the high-fat diet; also recorded: no longer increased greatly at and after the fourth week after providing lumichrome
- weight gain [2, 11]: ameliorate weight gain increase of mice resulting from the high-fat diet
- grip strength (muscular endurance) ([3]; HFD mice): did not cause a decrease in muscular endurance of mice
- grip strength (muscular endurance) ([3]; control diet mice): did not cause a decrease in muscular endurance of mice
- ALT in the serum [4, 10]: lower than those of the High-fat diet group
- AST in the serum [4, 10]: lower than those of the High-fat diet group
- LDH in the serum [4, 10]: lower than those of the High-fat diet group
- ALT in the serum [4, 11]: lower than those of the High-fat diet group
- AST in the serum [4, 11]: lower than those of the High-fat diet group
- LDH in the serum [4, 11]: lower than those of the High-fat diet group
- epididymal fat weight [5, 10]: lower than those of the High-fat diet group
- lipid amount in the liver [5, 10]: lower than those of the High-fat diet group
- liver weight [5, 10]: lower than those of the High-fat diet group
- epididymal fat weight [5, 11]: lower than those of the High-fat diet group
- liver weight [5, 11]: lower than those of the High-fat diet group
- lipid droplets size and accumulation in the liver [6, 12]: smaller lipid droplets and less lipid droplets accumulation than those of the High-fat diet group; also recorded: significantly better than that in the HFD-lumichrome in low dose group
- lipid droplets size and accumulation in the liver [6, 11]: smaller lipid droplets and less lipid droplets accumulation than those of the High-fat diet group
- relative mRNA expression level of Acta2 in the liver [7, 10]: less mRNA expression of Acta2 than that of the High-fat diet group
- relative mRNA expression level of Acta2 in the liver [7, 11]: less mRNA expression of Acta2 than that of the High-fat diet group
- relative mRNA expression level of CD36 in the liver [8, 10]: less mRNA expression of CD36 and FABP1 than that of the High-fat diet group
- relative mRNA expression level of CD36 in the liver [8, 11]: less mRNA expression of CD36 and FABP1 than that of the High-fat diet group
- relative mRNA expression level of FABP1 in the liver [9, 10]: less mRNA expression of CD36 and FABP1 than that of the High-fat diet group
- relative mRNA expression level of FABP1 in the liver [9, 11]: less mRNA expression of CD36 and FABP1 than that of the High-fat diet group
